Data as given in article PMC3643963, “Enhancement of Proteolytic Activity of a Thermostable Papain-Like Protease by Structure-Based Rational Design” (PLoS ONE, 2013).

Key:
Assay in all cases: residual activity, pNA release at […] nm
Type in all cases: biochemical
Conditions in all cases: read-out: IC50 against E-64
[1] = biological target: Ervatamin-C (Erv-C) (Tabernaemontana divaricata, UniProt A8DS38, A200Y)
[2] = biological target: Ervatamin-C (Erv-C) (Tabernaemontana divaricata, UniProt A8DS38, A200Y/S165T)
[3] = biological target: Ervatamin-C (Erv-C) (Tabernaemontana divaricata, UniProt A8DS38)
Sequence of Ervatamin-C (Erv-C) (Tabernaemontana divaricata, UniProt A8DS38) (A8DS38 134-341): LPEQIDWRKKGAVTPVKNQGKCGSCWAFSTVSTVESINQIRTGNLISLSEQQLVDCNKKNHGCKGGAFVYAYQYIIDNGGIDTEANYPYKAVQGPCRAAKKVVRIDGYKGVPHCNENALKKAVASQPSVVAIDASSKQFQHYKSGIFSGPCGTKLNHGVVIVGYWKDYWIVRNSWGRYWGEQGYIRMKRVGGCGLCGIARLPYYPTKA

Sequence of Ervatamin-C (Erv-C) (Tabernaemontana divaricata, UniProt A8DS38, A200Y) (A8DS38 134-341 A200Y): as the sequence (A8DS38 134-341) above, with A67Y counted along it
Sequence of Ervatamin-C (Erv-C) (Tabernaemontana divaricata, UniProt A8DS38, A200Y/S165T) (A8DS38 134-341 S165T/A200Y): as the sequence (A8DS38 134-341) above, with S32T, A67Y counted along it

## CC(C)C[C@H](NC(=O)[C@H]1O[C@@H]1C(=O)O)C(=O)NCCCCN=C(N)N [E-64]
[1]
  IC50: 251 nM
[2]
  IC50: 171 nM
[3]
  IC50: 349 nM
